Measurements published in US20260028354A1, “TETRAHYDRONAPHTHALENE DERIVATIVES AS ESTROGEN RECEPTOR DEGRADERS” (REGENT OF THE UNIVERSITY OF MICHIGAN, priority 2022, published 2026).
Read-outs that look alike come from different tables or passages of the source.

Biological target: ER in MCF-7 cells (Homo sapiens (Human), UniProt P03372)
Assay: In-cell Western (ICW) ER degradation assay in MCF-7 cells
Type: cell-based
Settings: for DC50: MCF-7, ER degradation, read-out: MCF7 DC50
From the text: In-cell Western (ICW) assays in MCF-7 and T47D cell lines.
Day 3: After 16 hrs of compounds treatment, cells were fixed by 4% PFA and permeabilized with elution buffer (0.1% Triton X-100 in 1% PBS Solution). Subsequently, cells were blocked with Intercept (PBS) Blocking Buffer (Li-COR, Odyssey Blocking Buffer), and were stained with ER (1:500, Cell signaling) primary antibody for overnight at cold room.
Day 4: Remove the buffer, add IRDye 800CW Goat anti-Rabbit IgG Secondary Antibody (1:2000) and CellTag 700 Stain (1:500) in Intercept (PBS) Blocking Buffer. Finally, cell plate is placed in incubator to dry. Image and signal were captured on Odyssey® DLx Imaging System.

[1] = MCF7, read-out: MCF7 Dmax, MCF-7, maximal ER degradation, 16 hrs treatment
[2] = MCF7, MCF-7, maximal ER degradation, 16 hrs treatment, read-out: MCF7 Dmax

Sequence of ER in MCF-7 cells (P03372 whole entry): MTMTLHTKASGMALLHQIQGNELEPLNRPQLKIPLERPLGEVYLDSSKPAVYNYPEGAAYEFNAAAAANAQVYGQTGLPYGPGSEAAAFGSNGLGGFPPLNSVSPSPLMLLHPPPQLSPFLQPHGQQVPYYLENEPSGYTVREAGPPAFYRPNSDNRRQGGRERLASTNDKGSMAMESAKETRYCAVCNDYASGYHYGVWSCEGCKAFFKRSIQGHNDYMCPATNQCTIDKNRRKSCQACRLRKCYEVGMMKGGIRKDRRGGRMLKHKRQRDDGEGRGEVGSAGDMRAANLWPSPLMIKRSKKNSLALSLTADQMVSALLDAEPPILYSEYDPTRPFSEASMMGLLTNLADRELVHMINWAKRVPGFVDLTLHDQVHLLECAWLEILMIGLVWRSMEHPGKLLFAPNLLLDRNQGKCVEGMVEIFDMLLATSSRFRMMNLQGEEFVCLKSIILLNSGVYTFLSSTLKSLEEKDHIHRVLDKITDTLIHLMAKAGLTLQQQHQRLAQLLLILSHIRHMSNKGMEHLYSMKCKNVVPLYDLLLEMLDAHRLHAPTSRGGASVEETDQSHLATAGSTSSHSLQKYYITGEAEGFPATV

Dmax [2] [%]	Structure (SMILES)	Dmax [1] [%]	DC50 (16 hrs treatment) [nM]	MCF7 Dmax (MCF-7, maximal ER degradation, 16 hrs treatment)
	COc1cc(N2CC3(CCC(CN4CCC5(CC4)COc4cc6c(cc45)CN([C@H]4CCC(=O)NC4=O)C6=O)CC3)C2)c(F)cc1[C@H]1c2ccc(O)cc2CC[C@H]1c1ccccc1 [Compound A172, (S)-3-(1′-((2-(2-fluoro-4-((1R,2R)-6-hydroxy-2-phenyl-1,2,3,4-tetrahydronaphthalen-1-yl)-5-methoxyphenyl)-2-azaspiro[3.5]nonan-7-yl)methyl)-7-oxo-5,7-dihydro-2H,6H-spiro[furo[2,3-f]isoindole-3,4′-piperidin]-6-yl)piperidine-2,6-dione]	25 to 50	10 to 100	
	O=C1CC[C@H](N2Cc3cc4c(cc3C2=O)OC[C@@H]2CN(CC3CCC5(CC3)CN(c3ccc([C@@H]6c7ccc(O)cc7CC[C@@H]6c6ccccc6)cn3)C5)CCN42)C(=O)N1 [Compound A130, (S)-3-((S)-3-((2-(5-((1S,2S)-6-hydroxy-2-phenyl-1,2,3,4-tetrahydronaphthalen-1-yl)pyridin-2-yl)-2-azaspiro[3.5]nonan-7-yl)methyl)-8-oxo-1,2,3,4,4a,5,8,10-octahydro-9H-pyrazino[1′,2′:4,5][1,4]oxazino[2,3-f]isoindol-9-yl)piperidine-2,6-dione]		1 to 10	A (“A”: >=75%)
	O=C1CC[C@H](N2Cc3c(ccc4c3OCC43CCN(CC4CC5(CCN(c6ccc([C@@H]7c8ccc(O)cc8CC[C@@H]7c7ccccc7)cc6F)CC5)C4)CC3)C2=O)C(=O)N1 [Compound A146, (S)-3-(1′-((7-(2-fluoro-4-((1R,2S)-6-hydroxy-2-phenyl-1,2,3,4-tetrahydronaphthalen-1-yl)phenyl)-7-azaspiro[3.5]nonan-2-yl)methyl)-6-oxo-6,8-dihydro-2H,7H-spiro[furo[2,3-e]isoindole-3,4′-piperidin]-7-yl)piperidine-2,6-dione]	25 to 50	10 to 100	
	O=C1CC[C@H](N2Cc3cc4c(cc3C2=O)OCC42CCN(CC3CCC4(CC3)CN(c3ccc([C@@H]5c6ccc(O)cc6CC[C@@H]5c5ccccc5)cn3)C4)CC2)C(=O)N1 [Compound A128, (S)-3-(1′-((2-(5-((1S,2S)-6-hydroxy-2-phenyl-1,2,3,4-tetrahydronaphthalen-1-yl)pyridin-2-yl)-2-azaspiro[3.5]nonan-7-yl)methyl)-7-oxo-5,7-dihydro-2H,6H-spiro[furo[2,3-f]isoindole-3,4′-piperidin]-6-yl)piperidine-2,6-dione]	50 to 75	1 to 10	
	COc1cc(N2CC3(CCC(CN4CCC5(CC4)COc4c5ccc5c4CN([C@H]4CCC(=O)NC4=O)C5=O)CC3)C2)c(F)cc1[C@H]1c2ccc(O)cc2CC[C@H]1c1ccccc1 [Compound A168, (S)-3-(1′-((2-(2-fluoro-4-((1R,2R)-6-hydroxy-2-phenyl-1,2,3,4-tetrahydronaphthalen-1-yl)-5-methoxyphenyl)-2-azaspiro[3.5]nonan-7-yl)methyl)-6-oxo-6,8-dihydro-2H,7H-spiro[furo[2,3-e]isoindole-3,4′-piperidin]-7-yl)piperidine-2,6-dione]	50 to 75	1 to 10	
50 to 75	O=C1CC[C@H](N2Cc3c(ccc4c3OC[C@H]3CN(CC5CC6(CCN(c7ccc([C@@H]8c9ccc(O)cc9CC[C@@H]8c8ccccc8)cc7F)CC6)C5)CCN43)C2=O)C(=O)N1 (single isomer, unassigned) [Compound A145]		10 to 100	
	COc1cc(N2CCC3(CC2)CC(CN2CCC4(CC2)COc2cc5c(cc24)CN([C@H]2CCC(=O)NC2=O)C5=O)C3)ccc1[C@@H]1c2ccc(O)cc2CC[C@@H]1c1ccccc1 [Compound A162, (S)-3-(1′-((7-(4-((1S,2S)-6-hydroxy-2-phenyl-1,2,3,4-tetrahydronaphthalen-1-yl)-3-methoxyphenyl)-7-azaspiro [3.5]nonan-2-yl)methyl)-7-oxo-5,7-dihydro-2H,6H-spiro[furo [2,3-f]isoindole-3,4′-piperidin]-6-yl)piperidine-2,6-dione]	25 to 50	< 1	
50 to 75	O=C1CC[C@H](N2Cc3cc4c(cc3C2=O)OC[C@@H]2CN(CC3CC5(CCN(c6ncc([C@H]7c8ccc(O)cc8CC[C@H]7c7ccccc7)cn6)CC5)C3)CCN42)C(=O)N1 (single isomer, unassigned) [Compound A143]		10 to 100	
	O=C1CC[C@H](N2Cc3c(ccc4c3OCC43CCN(CCCOC4CN(c5ccc([C@@H]6c7ccc(O)cc7CC[C@@H]6c6ccccc6)cc5)C4)CC3)C2=O)C(=O)N1 [Compound A183, (S)-3-(1′-(3-((1-(4-((1R,2S)-6-hydroxy-2-phenyl-1,2,3,4-tetra-hydronaphthalen-1-yl)phenyl)-azetidin-3-yl)oxy)propyl)-6-oxo-6,8-dihydro-2H,7H-spiro [furo[2,3-e]isoindole-3,4′-piperidin]-7-yl)piperidine-2,6-dione]	50 to 75	< 1	
	COc1cc(N2CC3(CCC(CN4CCC5(CC4)COc4cc6c(cc45)CN([C@H]4CCC(=O)NC4=O)C6=O)CC3)C2)c(F)cc1[C@@H]1c2ccc(O)cc2CC[C@@H]1c1ccccc1 [Compound A167, (S)-3-(1′-((2-(2-fluoro-4-((1S, 2S)-6-hydroxy-2-phenyl-1,2,3,4-tetrahydronaphthalen-1-yl)-5-methoxyphenyl)-2-aza-spiro[3.5]nonan-7-yl)methyl)-7-oxo-5,7-dihydro-2H,6H-spiro [furo[2,3-f]isoindole-3,4′-piper-idin]-6-yl)piperidine-2,6-dione]	50 to 75	< 1	
25 to 50	COc1cc(N2CC3(CCC(CN4CCN5c6cc7c(cc6OC[C@@H]5C4)C(=O)N([C@H]4CCC(=O)NC4=O)C7)CC3)C2)c(F)cc1[C@H]1c2ccc(O)cc2CC[C@H]1c1ccccc1 [Compound A169, (S)-3-((S)-3-((2-(2-fluoro-4-((1R,2R)-6-hydroxy-2-phenyl-1,2,3,4-tetrahydronaphthalen-1-yl)-5-methoxyphenyl)-2-azaspiro[3.5]nonan-7-yl)methyl)-8-oxo-1,2,3,4,4a,5,8,10-octahydro-9H-pyrazino[1′,2′: 4,5][1,4]oxazino[2,3-f]isoindol-9-yl)piperidine-2,6-dione]		10 to 100	
	O=C1CC[C@H](N2Cc3cc4c(cc3C2=O)OCC42CCN(CC3CCN(c4ccc([C@@H]5c6ccc(O)cc6CC[C@@H]5c5ccccc5)cc4)CC3)CC2)C(=O)N1 [Compound A186, (S)-3-(1′-((1-(4-((1R,2S)-6-hydroxy-2-phenyl-1,2,3,4-tetra-hydronaphthalen-1-yl)phenyl)-piperidin-4-yl)methyl)-7-oxo-5,7-dihydro-2H,6H-spiro[furo [2,3-f]isoindole-3,4′-piperidin]-6-yl)piperidine-2,6-dione]	50 to 75	< 1	
	COc1cc(N2CCC3(CC2)CC(CN2CCC4(CC2)COc2nc(C(=O)N[C@H]5CCC(=O)NC5=O)ccc24)C3)c(F)cc1[C@@H]1c2ccc(O)cc2CC[C@@H]1c1ccccc1 [Compound A190, N-((S)-2,6-dioxopiperidin-3-yl)-1′-((7-(2-fluoro-4-((1S,2S)-6-hydroxy-2-phenyl-1,2,3,4-tetrahydronaphthalen-1-yl)-5-methoxyphenyl)-7-azaspiro [3.5]nonan-2-yl)methyl)-2H-spiro[furo[2,3-b]pyridine-3,4′-piperidine]-6-carboxamide]	50 to 75	< 1	
